From patent US20230049231A1 (priority 2019, published 2023)

Legend:
Kv1.3 potassium channel = target: T1, Kv1.3 potassium channel (Homo sapiens, UniProt P22001); test: Kv1.3 potassium channel blocker activity, automated whole-cell patch clamp (Patchliner); type: cell-based; conditions: Kv1.3 potassium channel, whole-cell patch clamp
T1 construct: expressed in transfected cells
Summary of the method: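 IC50 came from Hill-equation fits of peak and AUC currents from the final pulse at each concentration, normalized to compound-free control. Compounds applied consecutively at 30 nM to 100 μM (up to 0.3% DMSO) to Kv1.3-expressing CHO-K1 cells, P/4 leak subtraction. Pulses were +40 mV, 100 ms, from −90 mV holding, at 0.1 Hz on Patchliner.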

hERG channel = target: T2, hERG channel (Homo sapiens, UniProt Q12809); test: hERG electrophysiology, automated whole-cell patch clamp (Patchliner); type: cell-based; conditions: hERG channel, whole-cell patch clamp
T2 construct: expressed in transfected cells
T2 sequence (Q12809 whole entry): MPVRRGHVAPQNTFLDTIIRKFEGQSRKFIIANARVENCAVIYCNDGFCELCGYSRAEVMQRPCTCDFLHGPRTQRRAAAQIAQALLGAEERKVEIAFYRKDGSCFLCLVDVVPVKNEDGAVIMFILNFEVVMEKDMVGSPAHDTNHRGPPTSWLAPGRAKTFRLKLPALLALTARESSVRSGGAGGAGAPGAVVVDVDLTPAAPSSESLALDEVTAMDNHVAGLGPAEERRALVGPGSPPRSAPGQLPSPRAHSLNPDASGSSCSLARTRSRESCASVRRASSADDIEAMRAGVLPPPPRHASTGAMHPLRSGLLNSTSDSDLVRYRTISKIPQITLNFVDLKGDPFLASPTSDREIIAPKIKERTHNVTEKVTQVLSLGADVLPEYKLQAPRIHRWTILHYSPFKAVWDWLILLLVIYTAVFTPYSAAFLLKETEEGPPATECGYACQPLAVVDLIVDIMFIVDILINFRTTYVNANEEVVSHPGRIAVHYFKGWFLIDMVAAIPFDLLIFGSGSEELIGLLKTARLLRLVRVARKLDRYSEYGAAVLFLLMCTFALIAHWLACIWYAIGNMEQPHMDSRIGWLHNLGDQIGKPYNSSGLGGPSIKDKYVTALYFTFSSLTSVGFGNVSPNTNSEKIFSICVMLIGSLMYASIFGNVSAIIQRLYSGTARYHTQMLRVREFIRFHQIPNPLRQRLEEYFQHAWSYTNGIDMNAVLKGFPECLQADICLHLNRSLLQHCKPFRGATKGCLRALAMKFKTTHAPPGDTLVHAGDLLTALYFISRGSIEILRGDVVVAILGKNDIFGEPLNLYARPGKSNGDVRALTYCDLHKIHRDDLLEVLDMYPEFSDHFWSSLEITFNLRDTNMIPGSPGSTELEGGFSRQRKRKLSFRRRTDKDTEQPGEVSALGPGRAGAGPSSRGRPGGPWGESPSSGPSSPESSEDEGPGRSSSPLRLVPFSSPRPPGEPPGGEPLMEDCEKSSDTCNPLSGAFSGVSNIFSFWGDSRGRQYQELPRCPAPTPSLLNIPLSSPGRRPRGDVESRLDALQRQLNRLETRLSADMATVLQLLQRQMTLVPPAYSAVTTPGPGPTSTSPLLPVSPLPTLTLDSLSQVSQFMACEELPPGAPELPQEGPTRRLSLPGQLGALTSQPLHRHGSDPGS
Summary of the method: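 Currents were recorded at 0.3 Hz from −80 mV, stepping to +20 mV then −50 mV (300 ms each), in stably transfected CHO-K1 cells. Concentrations (30 nM–100 μM, up to 0.3% DMSO) were added sequentially without washout. IC50 came from Hill fits of control-normalized AUC/peak of each train's final pulse.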

T1 sequence (P22001 whole entry): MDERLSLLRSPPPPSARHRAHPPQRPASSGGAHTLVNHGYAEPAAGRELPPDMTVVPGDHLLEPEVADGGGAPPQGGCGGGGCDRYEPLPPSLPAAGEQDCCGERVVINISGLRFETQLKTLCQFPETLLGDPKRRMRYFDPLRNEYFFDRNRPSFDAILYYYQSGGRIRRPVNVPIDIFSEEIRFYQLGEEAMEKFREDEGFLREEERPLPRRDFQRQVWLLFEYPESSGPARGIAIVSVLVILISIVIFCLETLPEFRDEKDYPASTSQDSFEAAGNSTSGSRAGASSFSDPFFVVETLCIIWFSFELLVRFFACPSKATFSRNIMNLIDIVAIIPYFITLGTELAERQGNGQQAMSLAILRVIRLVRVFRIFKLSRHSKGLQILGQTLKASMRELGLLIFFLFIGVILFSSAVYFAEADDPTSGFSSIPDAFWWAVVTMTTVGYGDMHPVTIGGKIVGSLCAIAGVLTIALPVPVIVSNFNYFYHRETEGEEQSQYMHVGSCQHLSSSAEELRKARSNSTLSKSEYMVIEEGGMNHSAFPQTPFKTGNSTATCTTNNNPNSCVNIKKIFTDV

Row | SMILES | IC50 (Kv1.3 potassium channel) [µM] | IC50 (hERG channel) [µM]
1 | O=C1CN(C(=O)C2(CO)CC2)C[C@@H]2C[C@H](c3c(O)ccc(Cl)c3Cl)CN12 [Compound 67, (7R,8aS)-7-(2,3-dichloro-6-hydroxyphenyl)-2-[1-(hydroxymethyl)cyclopro-panecarbonyl]-hexahydropyrrolo[1,2-a]pyrazin-4-one] | < 1 | > 30
2 | O=C(CC(F)F)N1CC(=O)N2C[C@@H](c3c(O)ccc(Cl)c3Cl)C[C@H]2C1 [Compound 68, (7R,8aS)-7-(2,3-dichloro-6-hydroxyphenyl)-2-(3,3-difluoropropanoyl)-hexahydropyrrolo [1,2-a]pyrazin-4-one] | < 1 | > 30
3 | CC[C@H](O)CC(=O)N1CC(=O)N2C[C@@H](c3c(O)ccc(Cl)c3Cl)C[C@H]2C1 [Compound 70, (7R,8aS)-7-(2,3-dichloro-6-hydroxyphenyl)-2-[(3S)-3-hydroxypentanoyl]-hexahydropyrrolo [1,2-a]pyrazin-4-one] | < 1 | < 30
4 | O=C(C[C@H](O)C1CC1)N1CC(=O)N2C[C@@H](c3c(O)ccc(Cl)c3Cl)C[C@H]2C1 [Compound 71, (7R,8aS)-2-[(3S)-3-cyclopropyl-3-hydroxypropanoyl]-7-(2,3-dichloro-6-hydroxyphenyl)-hexahydropyrrolo [1,2-a]pyrazin-4-one] | < 1 | < 30
5 | O=C(C[C@@H](O)C1CC1)N1CC(=O)N2C[C@@H](c3c(O)ccc(Cl)c3Cl)C[C@H]2C1 [Compound 72, (7R,8aS)-2-[(3R)-3-cyclopropyl-3-hydroxypropanoyl]-7-(2,3-dichloro-6-hydroxyphenyl)-hexahydropyrrolo [1,2-a]pyrazin-4-one] | < 1 | < 30
6 | O=C(C[C@H](O)C(F)F)N1CC(=O)N2C[C@@H](c3c(O)ccc(Cl)c3Cl)C[C@H]2C1 [Compound 75, (7R,8aS)-7-(2,3-dichloro-6-hydroxyphenyl)-2-[(3S)-4,4-difluoro-3-hydroxybutanoyl] hexahydropyrrolo [1,2-a]pyrazin-4-one] | < 1 | > 30
7 | C[C@@H]1NC[C@@H]2C[C@H](c3c(O)ccc(Cl)c3Cl)CN2C1=O [Compound 85, (3S,7R,8aS)-7-(2,3-dichloro-6-hydroxyphenyl)-3-methyl-hexahydro-1H-pyrrolo[1,2-a]pyrazin-4-one] | < 1 | < 30
8 | NC(=O)N1CC(=O)N2CC[C@@H](c3c(O)ccc(Cl)c3Cl)C[C@H]2C1 [Compound 96, (8R,9aS)-8-(2,3-dichloro-6-hydroxyphenyl)-4-oxo-hexahydro-1H-pyrido[1,2-a]pyrazine-2-carboxamide] | < 1 | > 30
9 | NC(=O)N1CCC(=O)N2C[C@@H](c3c(O)ccc(Cl)c3Cl)C[C@H]2C1 [Compound 97, (8R,9aS)-8-(2,3-dichloro-6-hydroxyphenyl)-5-oxo-hexahydro-1H-pyrrolo [1,2-a][1,4]diazepine-2-carboxamide] | < 1 | > 30
10 | CC1(O)CN(C(=O)N2CC(=O)N3C[C@@H](c4c(O)ccc(Cl)c4Cl)C[C@H]3C2)C1 [Compound 100, (7R,8aS)-7-(2,3-dichloro-6-hydroxyphenyl)-2-(3-hydroxy-3-methylazetidine-1-carbonyl)-hexahydropyrro[1,2-a]pyrazine-4-one] | < 1 | > 30
11 | O=C(N1CC[C@H](O)C1)N1CC(=O)N2C[C@@H](c3c(O)ccc(Cl)c3Cl)C[C@H]2C1 [Compound 102, (7R,8aS)-7-(2,3-dichloro-6-hydroxyphenyl)-2-[(3S)-3-hydroxypyrrolidine-1-carbonyl]-hexahydropyrro[1,2-a]pyrazine-4-one] | < 1 | > 30
12 | NC(=O)CN1CC(=O)N2C[C@@H](c3c(O)ccc(Cl)c3Cl)C[C@H]2C1 [Compound 110, 2-[(7R,8aS)-7-(2,3-dichloro-6-hydroxyphenyl)-4-oxo-hexahydropyrrolo [1,2-a]pyrazin-2-yl]acetamide] | < 1 | > 30
13 | CNC(=O)CN1CC(=O)N2C[C@@H](c3c(O)ccc(Cl)c3Cl)C[C@H]2C1 [Compound 111, 2-[(7R,8aS)-7-(2,3-dichloro-6-hydroxyphenyl)-4-oxo-hexahydropyrrolo [1,2-a]pyrazin-2-yl]-N-methylacetamide] | < 1 | > 30
14 | O=C1CN(CC(O)CO)C[C@@H]2C[C@H](c3c(O)ccc(Cl)c3Cl)CN12 (stereo partly drawn) [Compound 112, (7R,8aS)-7-(2,3-dichloro-6-hydroxyphenyl)-2-(2,3-dihydroxypropyl)-hexahydropyrrolo [l,2-a]pyrazin-4-one] | < 1 | > 30

More lines, main results first:

Row | IC50 (Kv1.3 potassium channel) [µM] | SMILES | IC50 (hERG channel) [µM]
15 | < 1 | CC[C@@H](O)CC(=O)N1CC(=O)N2C[C@@H](c3c(O)ccc(Cl)c3Cl)C[C@H]2C1 [Compound 69, (7R,8aS)-7-(2,3-dichloro-6-hydroxyphenyl)-2-[(3R)-3-hydroxypentanoyl]-hexahydropyrrolo [1,2-a]pyrazin-4-one] | > 30
16 | < 1 | O=C(CC(O)C(F)F)N1CC(=O)N2C[C@@H](c3c(O)ccc(Cl)c3Cl)C[C@H]2C1 (stereo partly drawn) [Compound 73, (7R,8aS)-7-(2,3-dichloro-6-hydroxyphenyl)-2-(4,4-difluoro-3-hydroxybutanoyl)-hexahydropyrrolo [1,2-a]pyrazin-4-one] | > 30
17 | < 1 | O=C([C@@H]1OCC[C@@H]1O)N1CC(=O)N2C[C@@H](c3c(O)ccc(Cl)c3Cl)C[C@H]2C1 [Compound 74, (7R,8aS)-7-(2,3-dichloro-6-hydroxyphenyl)-2-[(2R,3S)-3-hydroxyoxolane-2-carbonyl]-hexahydropyrrolo [1,2-a]pyrazin-4-one] | > 30
18 | < 1 | O=C(C[C@@H](O)C(F)F)N1CC(=O)N2C[C@@H](c3c(O)ccc(Cl)c3Cl)C[C@H]2C1 [Compound 76, (7R,8aS)-7-(2,3-dichloro-6-hydroxyphenyl)-2-[(3R)-4,4-difluoro-3-hydroxybutanoyl]-hexahydropyrrolo [1,2-a]pyrazin-4-one] | > 30
19 | < 1 | CCC[C@H](CO)C(=O)N1CC(=O)N2C[C@@H](c3c(O)ccc(Cl)c3Cl)C[C@H]2C1 [Compound 77, (7R,8aS)-7-(2,3-dichloro-6-hydroxyphenyl)-2-[(2R)-2-(hydroxymethyl)pentanoyl]-hexahydropyrrolo [1,2-a]pyrazin-4-one] | > 30
20 | < 1 | O=C(C[C@@H](O)CO)N1CC(=O)N2C[C@@H](c3c(O)ccc(Cl)c3Cl)C[C@H]2C1 [Compound 78, (7R,8aS)-7-(2,3-dichloro-6-hydroxyphenyl)-2-[(3R)-3,4-dihydroxybutanoyl]-hexahydropyrrolo [1,2-a]pyrazin-4-one] | > 30
21 | < 1 | C[C@@H]1CC(=O)N2C[C@@H](c3c(O)ccc(Cl)c3Cl)C[C@H]2CN1C(=O)CO [Compound 93, (3R,8R,9aS)-8-(2,3-dichloro-6-hydroxyphenyl)-2-(2-hydroxyacetyl)-3-methyl-hexahydro-1H-pyrrolo[1,2-a][1,4]diazepin-5-one] | < 30
22 | < 1 | C[C@H]1CC(=O)N2C[C@@H](c3c(O)ccc(Cl)c3Cl)C[C@H]2CN1C(=O)CO [Compound 94, (3S,8R,9aS)-8-(2,3-dichloro-6-hydroxyphenyl)-2-(2-hydroxyacetyl)-3-methyl-hexahydro-1H-pyrrolo[1,2-a][1,4]diazepin-5-one] | > 30
23 | < 1 | O=C(N1CC[C@@H](O)C1)N1CC(=O)N2C[C@@H](c3c(O)ccc(Cl)c3Cl)C[C@H]2C1 [Compound 101, (7R,8aS)-7-(2,3-dichloro-6-hydroxyphenyl)-2-[(3R)-3-hydroxypyrrolidine-1-carbonyl]-hexahydropyrro[1,2-a]pyrazine-4-one] | > 30
24 | < 1 | O=C(N1CC(CO)C1)N1CC(=O)N2C[C@@H](c3c(O)ccc(Cl)c3Cl)C[C@H]2C1 [Compound 103, (7R,8aS)-7-(2,3-dichloro-6-hydroxypheny1)-2-[3-(hydroxymethyl)azetidine-1-carbonyl]-hexahydropyrro[1,2-a]pyrazine-4-one] | > 30
25 | < 1 | O=C(NCCO)N1CC(=O)N2C[C@@H](c3c(O)ccc(Cl)c3Cl)C[C@H]2C1 [Compound 104, (7R,8aS)-7-(2,3-dichloro-6-hydroxyphenyl)-N-(2-hydroxyethyl)-4-oxo-hexahydropyrro[1,2-a]pyrazine-2-carboxamide] | > 30
26 | < 1 | O=C1CN(CCN2CCNCC2)C[C@@H]2C[C@H](c3c(O)ccc(Cl)c3Cl)CN12 [Compound 120, (7R,8aS)-7-(2,3-dichloro-6-hydroxyphenyl)-2-[2-(piperazin-1-yl)ethyl]-hexahydropyrrolo [1,2-a]pyrazin-4-one] | > 30
27 | < 1 | O=C1CN(CCN2CCOCC2)C[C@@H]2C[C@H](c3c(O)ccc(Cl)c3Cl)CN12 [Compound 121, (7R,8aS)-7-(2,3-dichloro-6-hydroxyphenyl)-2-[2-(morpholin-4-yl)ethyl]-hexahydropyrrolo [1,2-a]pyrazin-4-one] | < 30
28 | < 1 | O=C1CN(C(CO)CO)C[C@@H]2C[C@H](c3c(O)ccc(Cl)c3Cl)CCN12 [Compound 122, (8R,9aS)-8-(2,3-dichloro-6-hydroxyphenyl)-2-(1,3-dihydroxypropan-2-yl)-hexahydro-1H-pyrido[1,2-a] pyrazin-4-one] | > 30
29 | < 1 | O=C1CN(C2CC(O)C2)C[C@@H]2C[C@H](c3c(O)ccc(Cl)c3Cl)CN12 (stereo partly drawn) [Compound 123, (7R,8aS)-7-(2,3-dichloro-6-hydroxyphenyl)-2-(3-hydroxycyclobutyl)-hexahydropyrrolo[1,2-a]pyrazin-4-one] | > 30
